ChEMBL document CHEMBL4819055, “Discovery of 5-(N-hydroxycarbamimidoyl) benzofuran derivatives as novel indoleamine 2,3-dioxygenase 1 (IDO1) inhibitors” (Bioorg Med Chem Lett, 2021)

Molecular target: T1, Indoleamine 2,3-dioxygenase 1 (Homo sapiens, UniProt P14902)
Assay: Inhibition of IDO1 (unknown origin) assessed as reduction in kynurenine formation using L-tryptophan as substrate by absorbance based analysis

T1 sequence (P14902 whole entry): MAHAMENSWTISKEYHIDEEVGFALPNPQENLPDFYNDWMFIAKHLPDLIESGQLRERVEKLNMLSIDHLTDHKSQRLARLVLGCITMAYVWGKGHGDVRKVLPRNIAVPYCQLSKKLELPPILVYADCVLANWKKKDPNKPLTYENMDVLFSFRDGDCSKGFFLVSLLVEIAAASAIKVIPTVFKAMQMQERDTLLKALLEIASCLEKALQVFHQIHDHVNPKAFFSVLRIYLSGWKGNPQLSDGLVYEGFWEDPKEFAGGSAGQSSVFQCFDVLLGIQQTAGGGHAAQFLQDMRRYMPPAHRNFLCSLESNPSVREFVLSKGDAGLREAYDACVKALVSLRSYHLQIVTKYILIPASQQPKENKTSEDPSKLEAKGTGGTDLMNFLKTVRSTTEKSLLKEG

SMILES	IC50 [µM]
O/N=C(/Nc1ccc(Cl)c(F)c1)c1ccc2occc2c1	> 30
CCCCOc1cccc(N/C(=N/O)c2ccc3occc3c2)c1	> 30
O/N=C(/Nc1cccc(Cc2ccccc2)c1)c1ccc2occc2c1	> 30
CC1CCN(C(=O)c2cccc(N/C(=N/O)c3ccc4occc4c3)c2)CC1	> 30
O/N=C(/Nc1ccc(F)c(Br)c1)c1ccc2oc3ccccc3c2c1	2.4
O/N=C(/Nc1cccc(F)c1)c1ccc2occc2c1	32.7
COCc1cc2cc(/C(=N\O)Nc3cccc(F)c3)ccc2o1	7.1
O/N=C(/NCc1ccccc1)c1ccc2occc2c1	> 30
OCc1cc2cc(/C(=N\O)Nc3cccc(Cl)c3)ccc2o1	8
O/N=C(/Nc1cccc(Oc2ccccc2)c1)c1ccc2occc2c1	> 30
O=C(NCc1ccccc1)c1cccc(N/C(=N/O)c2ccc3occc3c2)c1	> 30
CC(=O)c1cccc(N/C(=N/O)c2ccc3occc3c2)c1	> 30
O/N=C(/Nc1ccc(F)c(Cl)c1)c1ccc2oc3ccccc3c2c1	9.6
O/N=C(/NCc1cccc(Cl)c1)c1ccc2occc2c1	> 30
O/N=C(/Nc1ccc(F)c(Cl)c1)c1ccc2occc2c1	5.2
O/N=C(/NCc1ccco1)c1ccc2occc2c1	> 30

SMILES	IC50 [µM]
O/N=C(/NCc1cccc(Cl)c1)c1ccc2oc3ccccc3c2c1	3.6
O/N=C(/Nc1cccc(F)c1)c1ccc2oc(-c3ccccc3)cc2c1	11
O/N=C(/NCc1cccs1)c1ccc2occc2c1	> 30
O/N=C(/Nc1ccc(Cl)cc1)c1ccc2occc2c1	> 30
O/N=C(/Nc1cccc(F)c1)c1ccc2oc(COCC3CC3)cc2c1	2.2
O/N=C(/NCC1CC1)c1ccc2occc2c1	> 30
O/N=C(/Nc1ccccc1)c1ccc2occc2c1	> 30
O=C(NCC1CCCCC1)c1cccc(N/C(=N/O)c2ccc3occc3c2)c1	> 30
O/N=C(/Nc1ccc(F)c(F)c1)c1ccc2occc2c1	22.7
O/N=C(/Nc1cccc(COc2ccccc2)c1)c1ccc2occc2c1	> 30
COc1cc(N/C(=N/O)c2ccc3oc4ccccc4c3c2)cc(OC)c1	> 30
Cc1ccc(N/C(=N/O)c2ccc3occc3c2)cc1C	> 30
O/N=C(/NCc1ccc(F)c(Cl)c1)c1ccc2occc2c1	22
O/N=C(/Nc1cccc(-c2ccccc2)c1)c1ccc2occc2c1	11
O/N=C(/Nc1cccc(Cl)c1)c1ccc2oc3ccccc3c2c1	1.8

Now those with a lower IC50, led by results:

IC50 [µM]	SMILES
1.7	OCc1cc2cc(/C(=N\O)Nc3cccc(F)c3)ccc2o1
1.6	O/N=C(/Nc1ccc(F)c(Br)c1)c1ccc2occc2c1
1.5	O/N=C(/Nc1cccc(Cl)c1)c1ccc2oc(COCC3CC3)cc2c1
1.3	O/N=C(/Nc1cccc(Br)c1)c1ccc2oc3ccccc3c2c1
1.2	O/N=C(/Nc1cccc(C(F)(F)F)c1)c1ccc2occc2c1
1.2	O/N=C(/Nc1ccc(F)c(C(F)(F)F)c1)c1ccc2occc2c1
1	COCc1cc2cc(/C(=N\O)Nc3cccc(Cl)c3)ccc2o1
0.93	COCc1cc2cc(/C(=N\O)Nc3cccc(Br)c3)ccc2o1
0.9	O/N=C(/Nc1cccc(Cl)c1)c1ccc2oc(-c3ccccc3)cc2c1
0.9	O/N=C(/Nc1cccc(Br)c1)c1ccc2oc(-c3ccccc3)cc2c1
0.71	OCc1cc2cc(/C(=N\O)Nc3cccc(Br)c3)ccc2o1
0.69	O/N=C(/Nc1cccc(Cl)c1)c1ccc2occc2c1
0.44	O/N=C(/Nc1cccc(Br)c1)c1ccc2occc2c1
0.4	O/N=C(/Nc1cccc(Br)c1)c1ccc2oc(COCC3CC3)cc2c1

Molecular target: T1, Indoleamine 2,3-dioxygenase 1
Assay: Inhibition of IDO1 in IFNgamma-stimulated human HeLa cells assessed as reduction in kynurenine formation using L-tryptophan as substrate by absorbance based analysis

SMILES	IC50 [µM]
O/N=C(/Nc1ccc(Cl)c(F)c1)c1ccc2occc2c1	10.3
CCCCOc1cccc(N/C(=N/O)c2ccc3occc3c2)c1	> 30
O/N=C(/Nc1cccc(Cc2ccccc2)c1)c1ccc2occc2c1	> 30
CC1CCN(C(=O)c2cccc(N/C(=N/O)c3ccc4occc4c3)c2)CC1	> 30
O/N=C(/Nc1ccc(F)c(Br)c1)c1ccc2oc3ccccc3c2c1	16.2
O/N=C(/Nc1cccc(F)c1)c1ccc2occc2c1	20
COCc1cc2cc(/C(=N\O)Nc3cccc(F)c3)ccc2o1	6.1
O/N=C(/NCc1ccccc1)c1ccc2occc2c1	28.2
OCc1cc2cc(/C(=N\O)Nc3cccc(Cl)c3)ccc2o1	5.9
O/N=C(/Nc1cccc(Oc2ccccc2)c1)c1ccc2occc2c1	> 30
O=C(NCc1ccccc1)c1cccc(N/C(=N/O)c2ccc3occc3c2)c1	> 30
CC(=O)c1cccc(N/C(=N/O)c2ccc3occc3c2)c1	> 30
O/N=C(/Nc1ccc(F)c(Cl)c1)c1ccc2oc3ccccc3c2c1	22.8
O/N=C(/NCc1cccc(Cl)c1)c1ccc2occc2c1	5.8
O/N=C(/Nc1ccc(F)c(Cl)c1)c1ccc2occc2c1	1.8
O/N=C(/NCc1ccco1)c1ccc2occc2c1	> 30

SMILES	IC50 [µM]
O/N=C(/NCc1cccc(Cl)c1)c1ccc2oc3ccccc3c2c1	29.6
O/N=C(/Nc1cccc(F)c1)c1ccc2oc(-c3ccccc3)cc2c1	10.6
O/N=C(/NCc1cccs1)c1ccc2occc2c1	16.2
O/N=C(/Nc1ccc(Cl)cc1)c1ccc2occc2c1	> 30
O/N=C(/Nc1cccc(F)c1)c1ccc2oc(COCC3CC3)cc2c1	8
O/N=C(/NCC1CC1)c1ccc2occc2c1	> 30
O/N=C(/Nc1ccccc1)c1ccc2occc2c1	19
O=C(NCC1CCCCC1)c1cccc(N/C(=N/O)c2ccc3occc3c2)c1	> 30
O/N=C(/Nc1ccc(F)c(F)c1)c1ccc2occc2c1	14
O/N=C(/Nc1cccc(COc2ccccc2)c1)c1ccc2occc2c1	> 30
COc1cc(N/C(=N/O)c2ccc3oc4ccccc4c3c2)cc(OC)c1	> 30
Cc1ccc(N/C(=N/O)c2ccc3occc3c2)cc1C	> 30
O/N=C(/NCc1ccc(F)c(Cl)c1)c1ccc2occc2c1	17.6
O/N=C(/Nc1cccc(-c2ccccc2)c1)c1ccc2occc2c1	11.9
O/N=C(/Nc1cccc(Cl)c1)c1ccc2oc3ccccc3c2c1	7.6

Now from value to compound:

IC50 [µM]	SMILES
2.4	OCc1cc2cc(/C(=N\O)Nc3cccc(F)c3)ccc2o1
2.6	O/N=C(/Nc1ccc(F)c(Br)c1)c1ccc2occc2c1
17.6	O/N=C(/Nc1cccc(Cl)c1)c1ccc2oc(COCC3CC3)cc2c1
10.8	O/N=C(/Nc1cccc(Br)c1)c1ccc2oc3ccccc3c2c1
1.9	O/N=C(/Nc1cccc(C(F)(F)F)c1)c1ccc2occc2c1
2.2	O/N=C(/Nc1ccc(F)c(C(F)(F)F)c1)c1ccc2occc2c1
2.2	COCc1cc2cc(/C(=N\O)Nc3cccc(Cl)c3)ccc2o1
2.5	COCc1cc2cc(/C(=N\O)Nc3cccc(Br)c3)ccc2o1
10.8	O/N=C(/Nc1cccc(Cl)c1)c1ccc2oc(-c3ccccc3)cc2c1
8.6	O/N=C(/Nc1cccc(Br)c1)c1ccc2oc(-c3ccccc3)cc2c1
1.2	OCc1cc2cc(/C(=N\O)Nc3cccc(Br)c3)ccc2o1
1.5	O/N=C(/Nc1cccc(Cl)c1)c1ccc2occc2c1
1.1	O/N=C(/Nc1cccc(Br)c1)c1ccc2occc2c1
3.2	O/N=C(/Nc1cccc(Br)c1)c1ccc2oc(COCC3CC3)cc2c1
